Assay results published in US4450269A, “Mono-5-substituted-3-chloro-4H-1,2,6-thiadiazin-4-one antifungal agents” (FMC Corporation, priority 1980, dated 1984).
Like-named read-outs stand apart in the source and are kept apart here.

What was measured:
Alternaria solani [1] = test: Spore germination test; type: cell-based; conditions: AS, 48 hours
Method: (§1) The test chemical was dissolved or suspended in acetone in an amount such that 0.8 ml of the resulting suspension or solution, mixed with 40 ml water agar produced a water agar solution containing 40, 10, 2.5 and 1 ppm of test chemical. The resulting agar solution, at 50° C., was then divided equally between two sterile petri dishes, each having four separated quadrants, and allowed to solidify. […] quadrants of each dish were flooded with 0.1 ml of a spore suspension in sterile water. Spores of two pathogens, Erysiphe polygoni and Uromyes phaseoli, from infected plant leaves, were brushed on the remaining two quadrants. The tests were then incubated 48 hours, at 24° C.
(§2) Readings were then taken and the percentage of germinated spores calculated. From this percentage, a spore germination rating was assigned as follows: […]

Botrytis cinerea = test: Spore germination test; type: cell-based; conditions: BC, 48 hours
Method: as §1, §2

Erysiphe polygoni = test: Spore germination test; type: cell-based; conditions: EP, 48 hours
Method: as §1, §2

Uromyces phaseoli = test: Spore germination test; type: cell-based; conditions: UP, 48 hours
Method: as §1, §2

Pyricularia oryzae [2] = type: cell-based; conditions: PO, 48 hours
Venturia inaequalis = test: Spore germination test; type: cell-based; conditions: VI, 48 hours
Method: VI = Venturia inaequalis
as §1, §2

Cladosporium cucumerinum [3] = test: Spore germination test; type: cell-based; conditions: CC, 48 hours
Method: CC = Cladosporium cucumerinum
as §1, §2

Phytophthora infestans = type: cell-based; conditions: PI, 48 hours
Fusarium solani = test: Mycelial growth test; type: cell-based; conditions: Fusarium solani, 72 h; for inhibition at 5 ppm / inhibition at 10 ppm / inhibition at 20 ppm: PS, 72 hours, read-out: Percent Fungus Growth Inhibition; for inhibition at 40 ppm: read-out: Percent Fungus Growth Inhibition, PS, 40 ppm, 72 hours
Pythium ultimum = test: Mycelial growth test; type: cell-based; conditions: Globisporangium ultimum, 72 h, PU, read-out: Percent Fungus Growth Inhibition
Rhizoctonia solani = test: Mycelial growth test; type: cell-based; conditions: Rhizoctonia solani, 72 h, RS, read-out: Percent Fungus Growth Inhibition
From the text: | RS = Rhizoctonia solani

Helminthosporium oryzae = test: Mycelial growth test; conditions: Bipolaris oryzae, 72 h, read-out: Percent Fungus Growth Inhibition
Alternaria solani [4] = test: Mycelial growth test; type: cell-based; conditions: Alternaria solani, 72 h, AS, read-out: Percent Fungus Growth Inhibition
Sclerotinia fructicola = test: Mycelial growth test; type: cell-based; conditions: Sclerotinia, 72 h, SF, read-out: Percent Fungus Growth Inhibition
From the text: | SF = Sclerotinia fructicola

Pyricularia oryzae [5] = test: microbe, parasite or virus in culture; type: cell-based; conditions: Pyricularia oryzae, 72 h
Cladosporium cucumerinum [6] = test: Mycelial growth test; type: cell-based; conditions: Cladosporium cucumerinum, CC, read-out: Percent Fungus Growth Inhibition
From the text: |CC = Cladosporium cucumerinum

CCCCNC(=O)n1c(NC(=O)OC)nc2ccccc21 [Benomyl, reference compound]
Spore Germination Rating (Alternaria solani [1]; 1.0 ppm): 4 (80-100) | Spore Germination Rating (Alternaria solani [1]; 2.5 ppm): 4 (80-100) | Spore Germination Rating (Alternaria solani [1]; 10 ppm): 4 (80-100) | Spore Germination Rating (Alternaria solani [1]; 40 ppm): 4 (80-100) | Spore Germination Rating (Botrytis cinerea; 1.0 ppm): 4 (80-100) | Spore Germination Rating (Botrytis cinerea; 2.5 ppm): 4 (80-100) | Spore Germination Rating (Botrytis cinerea; 10 ppm): 4 (80-100) | Spore Germination Rating (Botrytis cinerea; 40 ppm): 4 (80-100) | Spore Germination Rating (Erysiphe polygoni; 1.0 ppm): 2 (40-60) | Spore Germination Rating (Erysiphe polygoni; 2.5 ppm): 2 (40-60) | Spore Germination Rating (Erysiphe polygoni; 10 ppm): 0 (0-10) | Spore Germination Rating (Erysiphe polygoni; 40 ppm): 0 (0-10) | Spore Germination Rating (Uromyces phaseoli; 1.0 ppm): 4 (80-100) | Spore Germination Rating (Uromyces phaseoli; 2.5 ppm): 1 (10-40) | Spore Germination Rating (Uromyces phaseoli; 10 ppm): 1 (10-40) | Spore Germination Rating (Uromyces phaseoli; 40 ppm): 0 (0-10) | Spore Germination Rating (Pyricularia oryzae [2]; 1.0 ppm): 4 (80-100) | Spore Germination Rating (Pyricularia oryzae [2]; 2.5 ppm): 4 (80-100) | Spore Germination Rating (Pyricularia oryzae [2]; 10 ppm): 3 (60-80) | Spore Germination Rating (Pyricularia oryzae [2]; 40 ppm): 0 (0-10) | Spore Germination Rating (Venturia inaequalis; 1.0 ppm): 3 (60-80) | Spore Germination Rating (Venturia inaequalis; 2.5 ppm): 3 (60-80) | Spore Germination Rating (Venturia inaequalis; 10 ppm): 0 (0-10) | Spore Germination Rating (Venturia inaequalis; 40 ppm): 0 (0-10) | Spore Germination Rating (Cladosporium cucumerinum [3]; 1.0 ppm): 4 (80-100) | Spore Germination Rating (Cladosporium cucumerinum [3]; 2.5 ppm): 4 (80-100) | Spore Germination Rating (Cladosporium cucumerinum [3]; 10 ppm): 3 (60-80) | Spore Germination Rating (Cladosporium cucumerinum [3]; 40 ppm): 0 (0-10) | Spore Germination Rating (Phytophthora infestans; 1.0 ppm): 2 (40-60) | Spore Germination Rating (Phytophthora infestans; 2.5 ppm): 2 (40-60) | Spore Germination Rating (Phytophthora infestans; 10 ppm): 0 (0-10) | Spore Germination Rating (Phytophthora infestans; 40 ppm): 1 (10-40)

O=C1C2CC=CCC2C(=O)N1SC(Cl)(Cl)Cl (centres unmarked) [Captan, reference compound]
inhibition at 5 ppm (Fusarium solani): 19% | inhibition at 10 ppm (Fusarium solani): 33% | inhibition at 20 ppm (Fusarium solani): 48% | inhibition at 40 ppm (Fusarium solani): 44% | inhibition at 5 ppm (Pythium ultimum): 0% | inhibition at 10 ppm (Pythium ultimum): 0% | inhibition at 20 ppm (Pythium ultimum): 0% | inhibition at 40 ppm (Pythium ultimum): 0% | inhibition at 5 ppm (Rhizoctonia solani): 0% | inhibition at 10 ppm (Rhizoctonia solani): 0% | inhibition at 20 ppm (Rhizoctonia solani): 0% | inhibition at 40 ppm (Rhizoctonia solani): 0% | inhibition at 5 ppm (Helminthosporium oryzae): 18% | inhibition at 10 ppm (Helminthosporium oryzae): 46% | inhibition at 20 ppm (Helminthosporium oryzae): 62% | inhibition at 40 ppm (Helminthosporium oryzae): 65%

N#Cc1c(Cl)c(Cl)c(Cl)c(C#N)c1Cl [Chlorothalonil, reference compound]
inhibition at 5 ppm (Alternaria solani [4]; 5 ppm): 44% | inhibition at 10 ppm (Alternaria solani [4]; 10 ppm): 50% | inhibition at 20 ppm (Alternaria solani [4]; 20 ppm): 38% | inhibition at 40 ppm (Alternaria solani [4]; 40 ppm): 75% | inhibition at 5 ppm (Fusarium solani): 41% | inhibition at 10 ppm (Fusarium solani): 41% | inhibition at 20 ppm (Fusarium solani): 76% | inhibition at 40 ppm (Fusarium solani): 88% | inhibition at 5 ppm (Sclerotinia fructicola; 5 ppm): 67% | inhibition at 10 ppm (Sclerotinia fructicola; 10 ppm): 70% | inhibition at 20 ppm (Sclerotinia fructicola; 20 ppm): 76% | inhibition at 40 ppm (Sclerotinia fructicola; 40 ppm): 82% | inhibition at 5 ppm (Pyricularia oryzae [5]; read-out: Percent Fungus Growth Inhibition, PO, 5 ppm, 72 hours): 26% | inhibition at 10 ppm (Pyricularia oryzae [5]; read-out: Percent Fungus Growth Inhibition, PO, 10 ppm, 72 hours): 15% | inhibition at 20 ppm (Pyricularia oryzae [5]; read-out: Percent Fungus Growth Inhibition, PO, 20 ppm, 72 hours): 41% | inhibition at 40 ppm (Pyricularia oryzae [5]; read-out: Percent Fungus Growth Inhibition, PO, 40 ppm, 72 hours): 48% | inhibition at 5 ppm (Pythium ultimum): 0% | inhibition at 10 ppm (Pythium ultimum): 31% | inhibition at 20 ppm (Pythium ultimum): 100% | inhibition at 40 ppm (Pythium ultimum): 100% | inhibition at 5 ppm (Rhizoctonia solani): 31% | inhibition at 10 ppm (Rhizoctonia solani): 40% | inhibition at 20 ppm (Rhizoctonia solani): 53% | inhibition at 40 ppm (Rhizoctonia solani): 73% | inhibition at 5 ppm (Cladosporium cucumerinum [6]; 72 h, 5 ppm): 63% | inhibition at 10 ppm (Cladosporium cucumerinum [6]; 72 h, 10 ppm): 63% | inhibition at 40 ppm (Cladosporium cucumerinum [6]; 72 h, 40 ppm): 96% | inhibition at 20 ppm (Cladosporium cucumerinum [6]; CC20, 72 h, 20 ppm): 71% | inhibition at 5 ppm (Helminthosporium oryzae): 50% | inhibition at 10 ppm (Helminthosporium oryzae): 59% | inhibition at 20 ppm (Helminthosporium oryzae): 73% | inhibition at 40 ppm (Helminthosporium oryzae): 95%
